# According to patent publication US12643871B2, “Aryl formamide compound containing chiral sulfur oxide or salt thereof, preparation method, herbicidal composition and use thereof” (Qingdao Kingagroot Chemical Compound Co., Ltd., priority 2019, dated 2026):
# Columns and labels:
# Format in all cases: in vivo
# [1] = tested on: Abutilon theophrasti; assay: Weeding effect in post-emergence stage; conditions: 250 g/ha; 2 leaf stage; 15 days after application; fresh weight control rate
# Procedure, shortened: (§1)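 Post-emergence spray, 2-leaf stage; doses 500–15 g/ha; acetone + Tween 80 + methyl oleate EC (1.5 L/ha) as synergist. Greenhouse 15 d. Readout: fresh weight control rate graded levels 0–5 (5 = above 85%, 0 = below 5%); triplicate means.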
# [2] = tested on: Setaria viridis; assay: Weeding effect in post-emergence stage; conditions: 250 g/ha; 2 leaf stage; 15 days after application; fresh weight control rate
# Procedure, shortened: as §1
# [3] = tested on: Digitaria sanguinalis; assay: Weeding effect in post-emergence stage; conditions: 250 g/ha; 2 leaf stage; 15 days after application; fresh weight control rate
# Procedure, shortened: as §1
# [4] = tested on: Amaranthus retroflexus; assay: Weeding effect in post-emergence stage; conditions: 250 g/ha; 2 leaf stage; 15 days after application; fresh weight control rate
# Procedure, shortened: as §1
# [5] = tested on: Echinochloa crusgali; assay: Weeding effect in post-emergence stage; conditions: 250 g/ha; 2 leaf stage; 15 days after application; fresh weight control rate
# Procedure, shortened: as §1
# [6] = tested on: key weeds such as Digitaria sanguinalis, Leptochloa chinensis; assay: Comparison experiment (post-emergence, Tables 4-7), herbicidal activity on weeds not listed separately
# Description: The above growth control rates are fresh weight control rates.
# Experiment on weeding effect in post-emergence stage: monocotyledonous and dicotyledonous weed seeds (Descurainia sophia, Capsella bursa-pastoris, Galium aparine, Stellaria media, Lithospermum arvense, Rorippa indica, Alopecurus aequalis, Beckmannia syzigachne, Sclerochloa dura, Phleum paniculatum, Bromus japonicus, Aegilops tauschii, Phalaris arundinacea, Amaranthus retroflexus, Chenopodiaceae, Commelina communis, Sonchus arvensis, convolvulus arvensis, Cirsium setosum, Solanum nigrum, Acalypha australis, Digitaria sanguinalis, Echinochloa crusgalli, Setaria viridis, Setaria glauca, Leptochloa chinensis, Monochoria vaginalis, Sagittaria trifolia, Scirpus juncoides, Cyperus rotundus, Cyperus iria, Cyperus difformis, Fimbristylis, Portulaca oleracea, Xanthium sibiricum, Pharbitis nil) and major crop seeds (wheat, corn, rice, soybean, cotton, oilseed rape, millet, sorghum, potato, sesame, ricinus) were placed in plastic pots filled with soil, then covered with 0.5-2 cm of soil, allowed to grow in a good greenhouse environment. After 2 weeks of sowing, the test plants were treated in the 2 leaf stage. The tested compounds of the present invention were respectively dissolved in acetone, then added with Tween 80 and 1.5 liter/ha of emulsifiable concentrate of methyl oleate as synergist, diluted with a certain amount of water to obtain a solution with a certain concentration, and sprayed with a spray tower onto the plants. After the application, the plants were cultured for 15 days in the greenhouse, and then the experimental results of the weeding were counted. The doses of the used compounds were 500, 250, 125, 60, 30, 15 g/ha, and the averages were obtained by repeating for three times.
# If there is no clear marker, the post-seedling test conditions are the same as above, and the experimental results are shown in Tables 4-7.
# [7] = doses of 125, 60, 30, 15 g/ha, X replaced by other five membered rings
SMILES,"weeding effect in post-emergence stage, activity level (growth control rate), Abutilon theophrasti [1]","weeding effect in post-emergence stage, activity level (growth control rate), Setaria viridis [2]","weeding effect in post-emergence stage, activity level (growth control rate), Digitaria sanguinalis [3]","weeding effect in post-emergence stage, activity level (growth control rate), Amaranthus retroflexus [4]","weeding effect in post-emergence stage, activity level (growth control rate), Echinochloa crusgali [5]",herbicidal activity and/or crop safety compared with the corresponding racemate or S configuration ([6]; no dose stated),"herbicidal activity and/or crop safety compared with the corresponding racemate or S configuration ([6]; dose of 120, 48, 30, 24 g/ha)","herbicidal activity and/or crop safety compared with the corresponding racemate or S configuration [6, 7]"
COc1c(C(=O)Nc2nnc(C)o2)ccc(C(F)(F)F)c1[S@+]([O-])CC1CC1 [Compound 310],5 (Level 5: growth control rate is above 85%),5 (Level 5: growth control rate is above 85%),5 (Level 5: growth control rate is above 85%),5 (Level 5: growth control rate is above 85%),5 (Level 5: growth control rate is above 85%),better herbicidal activity and/or crop safety,,
CSc1c(C(=O)Nc2nnc(C)o2)ccc(C(F)(F)F)c1[S@+]([O-])CCCF [Compound 559],5 (Level 5: growth control rate is above 85%),5 (Level 5: growth control rate is above 85%),5 (Level 5: growth control rate is above 85%),5 (Level 5: growth control rate is above 85%),5 (Level 5: growth control rate is above 85%),,better herbicidal activity and/or crop safety,
CCC[S@@+]([O-])c1c(C(F)F)ccc(C(=O)Nc2nnnn2C)c1F [Compound 856],5 (Level 5: growth control rate is above 85%),5 (Level 5: growth control rate is above 85%),5 (Level 5: growth control rate is above 85%),5 (Level 5: growth control rate is above 85%),5 (Level 5: growth control rate is above 85%),,,better herbicidal activity and/or crop safety
CCC[S@@+]([O-])c1c(C(F)F)ccc(C(=O)Nc2nnc(C)o2)c1SC [Compound 865],5 (Level 5: growth control rate is above 85%),5 (Level 5: growth control rate is above 85%),5 (Level 5: growth control rate is above 85%),5 (Level 5: growth control rate is above 85%),5 (Level 5: growth control rate is above 85%),,better herbicidal activity and/or crop safety,
CC(C)C[S@@+]([O-])c1c(C(F)(F)F)ccc(C(=O)Nc2nnnn2C)c1F [Compound 380],5 (Level 5: growth control rate is above 85%),5 (Level 5: growth control rate is above 85%),5 (Level 5: growth control rate is above 85%),5 (Level 5: growth control rate is above 85%),5 (Level 5: growth control rate is above 85%),,,better herbicidal activity and/or crop safety
C=CC[S@@+]([O-])c1c(C(F)(F)F)ccc(C(=O)Nc2nnc(C)o2)c1SC [Compound 552],5 (Level 5: growth control rate is above 85%),5 (Level 5: growth control rate is above 85%),5 (Level 5: growth control rate is above 85%),5 (Level 5: growth control rate is above 85%),5 (Level 5: growth control rate is above 85%),,better herbicidal activity and/or crop safety,
CC[S@@+]([O-])c1c(C(F)(F)F)ccc(C(=O)Nc2nnc(C)o2)c1OC [Compound 306],5 (Level 5: growth control rate is above 85%),5 (Level 5: growth control rate is above 85%),5 (Level 5: growth control rate is above 85%),5 (Level 5: growth control rate is above 85%),5 (Level 5: growth control rate is above 85%),better herbicidal activity and/or crop safety,,
CSc1c(C(=O)Nc2nnc(C)o2)ccc(C(F)(F)F)c1[S@+]([O-])CC1CC1 [Compound 554],5 (Level 5: growth control rate is above 85%),5 (Level 5: growth control rate is above 85%),5 (Level 5: growth control rate is above 85%),5 (Level 5: growth control rate is above 85%),5 (Level 5: growth control rate is above 85%),,better herbicidal activity and/or crop safety,
CCC[S@@+]([O-])c1c(C(F)(F)F)ccc(C(=O)Nc2nnc(C)o2)c1SCC [Compound 569],5 (Level 5: growth control rate is above 85%),5 (Level 5: growth control rate is above 85%),5 (Level 5: growth control rate is above 85%),5 (Level 5: growth control rate is above 85%),5 (Level 5: growth control rate is above 85%),,better herbicidal activity and/or crop safety,
C=CC[S@@+]([O-])c1c(C(F)(F)F)ccc(C(=O)Nc2nnc(C)o2)c1OC [Compound 311],5 (Level 5: growth control rate is above 85%),5 (Level 5: growth control rate is above 85%),5 (Level 5: growth control rate is above 85%),5 (Level 5: growth control rate is above 85%),5 (Level 5: growth control rate is above 85%),better herbicidal activity and/or crop safety,,
CCCC[S@@+]([O-])c1c(C(F)(F)F)ccc(C(=O)Nc2nnc(C)o2)c1SC [Compound 550],5 (Level 5: growth control rate is above 85%),5 (Level 5: growth control rate is above 85%),5 (Level 5: growth control rate is above 85%),5 (Level 5: growth control rate is above 85%),5 (Level 5: growth control rate is above 85%),,better herbicidal activity and/or crop safety,
COc1c(C(=O)Nc2nnc(C)o2)ccc(C(F)(F)F)c1[S@+]([O-])CCON=C(C)C [Compound 348],5 (Level 5: growth control rate is above 85%),5 (Level 5: growth control rate is above 85%),5 (Level 5: growth control rate is above 85%),5 (Level 5: growth control rate is above 85%),5 (Level 5: growth control rate is above 85%),better herbicidal activity and/or crop safety,,
